The nature of series [1]: Kinetic solubility in 50 mM phosphate buffer (pH 7.4). In kind it is physicochemical. Particulars: comparison in words, data of Table 3. The method, then: 10 μL of 10 mM in DMSO of test and control compounds was added into lower chambers of whatman miniuniprep vials, respectively. 490 μL of 50 mM PB (pH 7.4) was added into lower chambers of the whatman miniuniprep vials, respectively. The solubility samples were vortexted for at least 2 minutes. The miniuniprep vials were shaken on a shaker for 24 hours at room temperature at the speed of 800 rpm and then centrifuged for 20 minutes (eg. 4000 rpm). The miniunipreps were compressed to prepare the filtrates for injection into HPLC system to calculate the concentration with standard curve.

A further series concerns Caco-2 cells. In words: Permeability in Caco-2 Assay. In kind it is in vitro ADME. Particulars: comparison in words, data of Table 4. The method, then:
Permeability of test compounds was determined in Caco-2 Assay. Caco-2 cells purchased from ATCC were seeded onto […] (PET) in 96-well Corning Insert plates at 1×10^5 cells/cm2, and refreshed medium every 4˜5 days until to the 21st to 28th day for confluent cell monolayer formation. The transport buffer in the study was HBSS with 10.0 mM HEPES at pH 7.40±0.05. Test compound was tested at 2.00 μM bi-directionally in duplicate. Digoxin was tested at 10.0 μM bi-directionally in duplicate, while nadolol and metoprolol were tested at 2.00 μM in A to B direction in duplicate. Final DMSO concentration was adjusted to less than 1%. The plate was incubated for 2 hours in CO2 incubator at 37±1° C., with 5% CO2 at saturated humidity without shaking. And all samples after mixed with acetonitrile containing internal standard were centrifuged at 3200×g for 10 min. For nadolol and metoprolol, 200 μL supernatant solution was diluted with 600 μL ultra-pure water for LC-MS/MS analysis. For digoxin and test compounds, 200 μL supernatant solution was diluted with 200 μL ultra-pure water for LC-MS/MS analysis. Concentrations of test and control compounds in starting solution, donor solution, and receiver solution were quantified by LC-MS/MS methodologies, using peak area ratio of analyte/internal standard. […]

In the case of `COc1cccc(OC)c1S(=O)(=O)Nc1noc2cc(Oc3nccs3)c3c(c12)OCCC3` [Compound 35, 2,6-dimethoxy-N-(5-(thiazol-2-yloxy)-3,4-dihydro-2H-chromeno[8,7-d]isoxazol-9-yl)benzenesulfonamide], in series [1], the “kinetic solubility compared with otherwise identical compound having X as carbon” value is “improved kinetic solubility”. In addition, in the series on Caco-2 cells, the “permeability compared with reference compound” value was “improved permeability”.

The values are drawn from US12091406B2, “Lysine acetyltransferase 6A (KAT6A) inhibitors and uses thereof” (Insilico Medicine IP Limited, priority 2021, dated 2024).
